Laboratory results published in PubChem BioAssay AID1963853 (Molecular Pharmacology Branch, DTP, NCI, 2024).
Each block holds one compound with its values, some of them ahead of it.

Tested on: 266295-075-R-J1-PDC spheroid viability
Assay: Anticancer human tumor 266295-075-R-J1-PDC patient-derived head and neck squamous carcinoma cell line growth inhibition [POLQ]
Settings: spheroids with HUVEC and MSC; for viability, T/C: stronger effect = lower value
Method: Multicellular complex tumor spheroid response to Polymerase (POL) inhibitors (novobiocin, ART-558, RP6685) in combination with a variety of drugs and investigational agents in selected tumor cell lines
The POL inhibitors (novobiocin, ART-558, and RP6685) were evaluated both individually and in combination with standard of care and investigational anticancer small molecules within a complex spheroid model of solid tumors. . Complex spheroids include a stromal component modeled by human endothelial cells (HUVEC) and fibroblasts modeled by human mesenchymal stem cells (MSCs). The concentration ranges selected for each drug and investigational agent were based upon clinically achievable concentrations if the clinical Cmax of the agent was known.
Compounds. The drugs and investigational agents: novobiocin (NSC847541), ART-558 (NSC835418), RP-6685 (NSC848927), peposertib (NSC802822), ceralasertib (NSC780249), elimusertib (NSC800525), camonsertib (NSC841442), AZD-1390 (NSC803789), olaparib (NSC753686), talazoparib (NSC767125), rucaparib (NSC756644), sotorasib (NSC818433), MRTX-1133 (NSC836407), SN-38 (NSC673596), topotecan (NSC609699), epotoside (NSC141540), doxorubicin (NSC123127), gemcitabine (NSC613327), 5-fluorouracil (NSC19893), paclitaxel (NSC125973), vemurafenib (NSC761431), MSA-2 (NSC828583), SN-011 (NSC837082), adavosertib (NSC754352), prexasertib (NSC758257), carboplatin (NSC241240) and oxaliplatin (NSC266046), were obtained from the National Cancer Institute (NCI) Developmental Therapeutics Program Chemical Repository (21). The FDA-approved anticancer drug set is available from the Developmental Therapeutics Program at https://dtp.cancer.gov/organization/dscb/obtaining/. […] The stock solutions were prepared in dimethyl sulfoxide (DMSO, Sigma-Aldrich, St. Louis, MO, cat. D2650), except for the platinum compounds which were prepared in saline (Quality Biological, Gaithersburg, MD, cat. 114-055-101), at 800-fold the tested concentration and stored at -70 degrees C prior to their use. All drugs and investigational agents were tested over a range starting from a high concentration at or near the clinical Cmax and decreasing in half-log increments. If the clinical Cmax for an agent had not been determined, the highest concentration tested was 10 microM, except for SN-38, which was tested at a high concentration of 1 microM.
Cell Culture. All cells were maintained in an incubator at 37 degrees C and 5% CO2 with 95% humidity. The PDC lines were cultured according to standard operating procedures established by the NCI PDMR (https://pdmr.cancer.gov). Table 3 of the manuscript, lists the cell lines along with the number of the three cell types plated to form the mct-spheroids and media for tumor cell growth. After thawing, all PDC lines, except 997537-175-T-J1-PDC and 415267-285-R-J2-PDC, were cultured in Matrigel-coated flasks prepared with a working solution of 1X Ham's F-12 nutrient mix, without supplementation (Thermo Fisher Scientific, cat. 11765054), 100 U/mL penicillin-streptomycin (Thermo Fisher Scientific, cat. 15140122), and 2.5% Matrigel (Corning Inc., Corning, NY, cat. 354248) for the first three passages. The two PDC lines 997537-175-T-J1-PDC and 415267-285-R-J2-PDC were cultured on uncoated flasks. The 857933-349-R-J2-PDC line was cultured in 6C/Colon 1B media containing advanced DMEM/F-12 (Thermo Fisher Scientific, cat. 12634028), 10 mM HEPES (Thermo Fisher Scientific, cat. 15630080), 1X GlutaMAX supplement (Thermo Fisher Scientific, cat. 35050061), 0.1 mg/mL primocin (InvivoGen, San Diego, CA, cat. ant-pm-2), 10% defined fetal bovine serum, heat inactivated (HyClone Laboratories Inc., Logan, UT, cat. SH30070.03HI), 50% L-WRN conditioned media (ATCC, cat. CRL-3276), 1.25 mM N-Acetyl-L-cysteine (Sigma-Aldrich, cat. A9165), 10 mM nicotinamide (Sigma-Aldrich, cat. N0636), 1X B-27 supplement (Thermo Fisher Scientific, cat. 17504044), 1X N-2 supplement (Thermo Fisher Scientific, cat. […]
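Note: spheroids exposed to compounds for seven days before readout.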

SMILES: CC(=O)O[C@H]1C(=O)[C@@]2(C)[C@H]([C@H](OC(=O)c3ccccc3)[C@]3(O)C[C@H](OC(=O)[C@H](O)[C@@H](NC(=O)c4ccccc4)c4ccccc4)C(C)=C1C3(C)C)[C@]1(OC(C)=O)CO[C@@H]1C[C@@H]2O + Cc1cccc(N(C)C(=O)C2C(O)CCN2c2nc(C)cc(C(F)(F)F)c2C#N)c1
- IC50 (curve of first compound, second compound 0.0316 µM): > 3 µM
- IC50 (curve of first compound, second compound 0.1 µM): > 3 µM
- IC50 (curve of first compound, second compound 0.316 µM): > 3 µM
- IC50 (curve of first compound, second compound 1 µM): > 3 µM
- IC50 (curve of first compound, second compound 3.16 µM): > 3 µM
- IC50 (curve of first compound, second compound 10 µM): > 3 µM
- viability, T/C (second compound 0.0316 µM, first compound 0.00949 µM): 71.9%
- viability, T/C (second compound 0.0316 µM, first compound 0.03 µM): 58.7%
- viability, T/C (second compound 0.0316 µM, first compound 0.0949 µM): 62.5%
- viability, T/C (second compound 0.0316 µM, first compound 0.3 µM): 80.5%
- viability, T/C (second compound 0.0316 µM, first compound 0.949 µM): 78.7%
- viability, T/C (second compound 0.0316 µM, first compound 3 µM): 60%
- viability, T/C (second compound 0.1 µM, first compound 0.00949 µM): 71.7%
- viability, T/C (second compound 0.1 µM, first compound 0.03 µM): 71%
- viability, T/C (second compound 0.1 µM, first compound 0.0949 µM): 56.9%
- viability, T/C (second compound 0.1 µM, first compound 0.3 µM): 74.7%
- viability, T/C (second compound 0.1 µM, first compound 0.949 µM): 83.8%
- viability, T/C (second compound 0.1 µM, first compound 3 µM): 51.8%
- viability, T/C (second compound 0.316 µM, first compound 0.00949 µM): 100%
- viability, T/C (second compound 0.316 µM, first compound 0.03 µM): 65.9%
- viability, T/C (second compound 0.316 µM, first compound 0.0949 µM): 64%
- viability, T/C (second compound 0.316 µM, first compound 0.3 µM): 69.2%
- viability, T/C (second compound 0.316 µM, first compound 0.949 µM): 71%
- viability, T/C (second compound 0.316 µM, first compound 3 µM): 55.4%
- viability, T/C (second compound 1 µM, first compound 0.00949 µM): 70.8%
- viability, T/C (second compound 1 µM, first compound 0.03 µM): 56.4%
- viability, T/C (second compound 1 µM, first compound 0.0949 µM): 79.4%
- viability, T/C (second compound 1 µM, first compound 0.3 µM): 68%
- viability, T/C (second compound 1 µM, first compound 0.949 µM): 78.2%
- viability, T/C (second compound 1 µM, first compound 3 µM): 62.7%
- viability, T/C (second compound 3.16 µM, first compound 0.00949 µM): 93%
- viability, T/C (second compound 3.16 µM, first compound 0.03 µM): 60.2%
- viability, T/C (second compound 3.16 µM, first compound 0.0949 µM): 73.1%
- viability, T/C (second compound 3.16 µM, first compound 0.3 µM): 69.1%
- viability, T/C (second compound 3.16 µM, first compound 0.949 µM): 81.5%
- viability, T/C (second compound 3.16 µM, first compound 3 µM): 61.9%
- viability, T/C (second compound 10 µM, first compound 0.00949 µM): 83.8%
- viability, T/C (second compound 10 µM, first compound 0.03 µM): 52.4%
- viability, T/C (second compound 10 µM, first compound 0.0949 µM): 60.9%
- viability, T/C (second compound 10 µM, first compound 0.3 µM): 68.1%
- viability, T/C (second compound 10 µM, first compound 0.949 µM): 72.4%
- viability, T/C (second compound 10 µM, first compound 3 µM): 62.8%

- IC50 (compound alone, run of 10/31/2023): > 10 µM
- IC50 (compound alone, run of 11/06/2023): > 10 µM
SMILES: Cc1cccc(N(C)C(=O)C2C(O)CCN2c2nc(C)cc(C(F)(F)F)c2C#N)c1 (centres undefined)
